“Also recorded” adds a separate entry of the source.
Assays:
[1] = test system: Rhodococcus sp. strain IGTS8; settings: background statement; cited from earlier work
[2] = test system: strain ECRD-1; settings: Lee, Senius and Grossman, 1996; cited from earlier work
[3] = test system: strain N1-36; settings: Wang and Krawiec, 1996a; cited from earlier work
[4] = test system: Rhodococcus sp. strain 213E; experiment: Growth studies of strain 213E in mineral salts medium with a sole sulphur source (biomass OD600, Gibbs phenol assay, GC-MS of metabolites); settings: for Biomass at end log phase / Mean Generation time: strain 213E in FruRM
Experimental: (§1) The final pH was 7.2 without titration. In some experiments another sugar replaced glucose as the carbon-source.
(§2) For cultures of strain IGTS8, DST (200 μM, added from a stock solution, 40 mM in acetone) was included.
(§3) Growth studies SRM (50 ml in a 100 ml Ehrlenmyer flask) was inoculated with a loopful of cells from a plate and incubated in an orbital shaker (250 rpm, 30° C.). At intervals as appropriate, an 3 ml sample was removed aseptically for measurement of biomass (as optical density at 600 mm, O.D.600) and for phenol production using the Gibbs Assay. The Gibbs Assay was carried out as follows: 1.5 ml of the sample was aliquoted into a Eppendorf tube, centrifuged (12000 rpm, 5 min) to remove the cells and frozen (−20° C.) until the end of the experiment. The samples were then thawed out and 1.0 ml of the supernatant was transferred to a 1 ml disposable spectrophotometer cuvette. 10 μl Gibbs reagent (10 mM in acetone) was then added to each cuvette. A blank solution (SRM +10 μg Gibbs reagent) was also prepared. The set was incubated overnight at 30° C., for full colour development, and the absorbance at 610 nm was measured.
(§4) Cells were removed by centrifugation at 2800×g (3000 rpm) for 30 mins and the supernatant was titrated to pH 1 with 50% HCl and extracted three times with equal volumes of ethyl acetate. The ethyl acetate extracts ware pooled and dried by stirring for 1 h with anhydrous MgSO4 (100 g/l). The ethyl acetate was removed by rotory evaporation and the solids re-dissolved in 3.0 ml ethyl acetate.
(§5) The GC was fitted with a Hewlett Packard capillary column HP-5MS, of length 30 m. The carrier gas was helium. Run conditions were as follows: Start temperature 40° C. held for 2 min, followed by 10° C./min ramp rate to final temperature 240° C. Total run time, 24 min. The mass scan range was 40 to 550 amu.
(§6) The flasks were incubated in an orbital shaker (120 rpm, 30° C.). At intervals 3 ml was withdrawn from each culture under sterile conditions for measurement of biomass and phenol concentration, as described in methods. The cells were also Gram stained and examined under the microscope.

[5] = test system: Rhodococcus sp. strain 213F; experiment: Growth studies of strain 213F in mineral salts medium with a sole sulphur source (biomass OD600, Gibbs phenol assay, GC-MS of metabolites); settings: for Biomass at end log phase / Mean Generation time: strain 213F in FruRM; for Biomass at end log phase / Mean Generation time / mean generation time (MGT): sulphur source 200 μM; for mean generation time (MGT): strain 213F, (FruRM)
Experimental: as §1, §3
The flasks were incubated in an orbital shaker (120 rpm, 30° C.). At intervals 3 ml was withdrawn from each culture under sterile conditions for measurement of biomass and phenol concentration, as described in methods.

[6] = test system: Rhodococcus sp. strain IGTS8; experiment: Growth studies of strain IGTS8 in mineral salts medium with a sole sulphur source (biomass OD600, Gibbs phenol assay, GC-MS of metabolites); settings: for mean generation time (MGT): strain IGTS8, as stated in the text (FruRM)
Experimental: as §1, §2, §3, §4, §5, §6

[7] = strain IGTS8 in SRM, sulphur source 200 μM

## c1ccc2sccc2c1 [BTH, benzothiophene]
[1]
  desulphurisation of compound by IGTS8: not
[2]
  desulphurisation activity of strain ECRD-1: negligible
[3]
  desulphurisation activity of strain N1-36: negligible
[4]
  desulphurisation of compound by strain 213E: efficiently desulphurise
[4]; concentration range <200 μM (growth curves 50-200 μM)
  toxicity to strain 213E (effect on MGT): not toxic
[4]; sulphur source 50 μM
  Biomass at end log phase: 2.3 OD600
  Mean Generation time: 8.0 h
[4]; sulphur source 100 μM
  Biomass at end log phase: 3.0 OD600
  Mean Generation time: 8.6 h
[4]; sulphur source 200 μM
  Biomass at end log phase: 4.2 OD600
  Mean Generation time: 9.0 h
[5]
  desulphurisation of compound by strain 213F: efficiently desulphurise; also recorded: able to desulphurise; also recorded: appears to desulphurise
  Biomass at end log phase: 6.0 OD600
  Mean Generation time: 8.0 h
  mean generation time (MGT): around 8 h
[6]
  desulphurisation of compound by strain IGTS8: unable to desulphurise; also recorded: does not desulplurise
[6]; strain IGTS8 in SRM, over a period of 100 h
  growth with compound as sole sulphur source: no significant growth

## c1ccc2c(c1)sc1ccccc12 [DBT, dibenzothiophene]
[1]
  desulphurisation of compound by IGTS8: desulphurises
[4]
  desulphurisation of compound by strain 213E: unable to desulphurise; also recorded: does not desulphurise
[4]; strain 213E, compound substituted for BTH, FruRM, over a period of 100 h
  growth with compound as sole sulphur source: no significant growth
[5]
  desulphurisation of compound by strain 213F: able to desulphurise; also recorded: appears to desulphurise
  Biomass at end log phase: 5.4 OD600
  Mean Generation time: 12.4 h
  mean generation time (MGT): 12 h
[6]
  desulphurisation of compound by strain IGTS8: desulphurised
[6]; sulphur source 200 μM
  mean generation time (MGT): around 8 h
[6]; [7]
  Mean Generation time: 7.0 h
[6]; strain IGTS8 in SRM, sulphur source 200 μM, 1 cm pathlength
  Biomass at end log phase: 6.0 OD600

## O=S(=O)([O-])[O-].[Na+].[Na+] [sulphate, Sodium sulphate]
[4]; sulphur source 200 μM
  Mean Generation time: 4.4 h
[4]; strain 213E, sulphur source 200 μM
  mean generation time (MGT): around 4 h
[5]
  Mean Generation time: 3.6 h
  mean generation time (MGT): around 4 h
[6]; sulphur source 200 μM
  mean generation time (MGT): around 4 h
[6]; [7]
  Mean Generation time: 3.2 h

## c1ccsc1 [thiophene]
[1]
  desulphurisation of compound by IGTS8: not

Reference: patent US20010008770A1, “MICRO-ORGANISM WHICH CAN DESULPHURISE BENZOTHIOPHENES” (priority 1996, published 2001)
